According to patent US7375168B2, “Protein compatible methods and compounds for controlling the morphology and shrinkage of silica derived from polyol-modified silanes” (McMaster University, priority 2002, dated 2008):
pIC50: −log10 of the molar value. Read-outs that look alike come from different tables or passages of the source. Ends that are not written are not given here.

Key:
[1] = target: T1, Src kinase, human recombinant (Homo sapiens, UniProt P12931); experiment: Src PTK inhibition, free and entrapped in GLTES/DGS silica, TR-FRET detection of peptide phosphorylation; format: biochemical; conditions: substrate P1716, ATP as in FIG. 29
T1 construct: purchased Sigma-Aldrich (Oakville, ON) S5439; host or cells: insect cells

[2] = target: T2, dihydrofolate reductase (DHFR) (Escherichia coli, UniProt P0ABQ4); format: binding, E. coli; conditions: for elution time: 20 nM compounds, 100 nM fluorescein, 2 mM ammonium acetate; for elution / retention time: column with 50 pmol DHFR initial loading (FIG. 19 Panel B), compounds infused at 20 nM, fluorescein 100 nM
T2 construct: made in house

[3] = Src entrapped in GLTES/DGS derived silica, read-out: IC50 Entrapped in Silica
[4] = free Src in solution, read-out: IC50 Solution
[5] = FIG. 22 Panel A, column cut from one continuously filled capillary
[6] = FIG. 22 Panel B, second column from the same capillary

Row | Compound | pIC50 [1, 3] | pIC50 [1, 4] | elution time [2, 5] [min] | elution time [2, 6] [min] | elution / retention time [2] [min]
1 | COc1cc2ncnc(Nc3ccc(Oc4ccccc4)cc3)c2cc1OC [Src Kinase Inhibitor I, 4-(4-phenoxyanilino)-6,7-dimethoxyquinazoline] | 6.10 to 6.22 | 6.15 to 6.30 | – | – | –
2 | O=c1ccc2ccccc2o1 [coumarin] | – | – | 2.7 | 2.6 | 2
3 | Nc1nc2ncc(CNc3ccc(C(=O)N[C@@H](CCC(=O)O)C(=O)O)cc3)nc2c(=O)[nH]1 [folic acid] | – | – | 8.9 | 8.4 | 7
4 | YIYGSFK [YIYGSFK] | 2.85 to 3.00 | 2.92 to 3.10 | – | – | –
